Measured values as given in patent US20210100905A1, “APPLICATION OF COMPOUND OR TRADITIONAL CHINESE MEDICINE EXTRACT IN PREPARATION OF NUCLEIC ACID DELIVERY AGENT, AND RELATED PRODUCTS” (INSTITUTE OF BASIC MEDICAL SCIENCES CHINESE ACADEMY OF …, priority 2018, published 2021).
Entries after “also recorded” stand apart in the source; their conditions may differ.

Columns and labels:
[1] = system: A549 cell (human lung adenocarcinoma cell); test: In vitro delivery of lipid nucleic acid mixture, RT-qPCR of intracellular small RNA; type: cell-based; conditions: for abundance of sRNA of different sequences in the cells (Taqman probe): FIG. 11A-C, sRNA 200 nM, 3 hours, compared with the control; for delivery of HJT-sRNA-m7 double-stranded RNA into A549 cells (real-time PCR): single lipid prepared by boiling or reverse evaporation method, RNA 100 nM, FIGS. 76, 91, 96, 99, 104, 106, 107; for delivery of HJT-sRNA-m7 single-stranded RNA into A549 cells (real-time PCR): single lipid, FIGS. 78, 92, 103; for delivery effect relative to that of RNAiMAX (real-time PCR): double-stranded HJT-sRNA-m7
Description: 3.1 NCI-N87 cell (gastric cancer cell), MRC-5 cell (lung fibroblast), A549 cell (lung cancer cell) were cultured to logarithmic growth phase, and then plated to a six-well plate at cell density of 1×10^6/2 mL medium/well; MRC-5 cell was cultured in Eagle's MEM medium (MEM, Gibco); A549 cell was cultured in Ham's F-12 medium (HyClone); NCI-N87 cell was cultured in RPMI-1640 medium (HyClone); followed by incubation overnight at 37° C., and the follow-up experiments were performed after the cells were attached to the walls.
3.3 After co-incubation with the small RNA for 3 hours, the cells were washed 2-3 times with PBS. The cells were harvested with TRIzol lysis buffer, and the total RNA was extracted. The abundance of small RNA that entered cells was detected by RT-qPCR, and the localization of RNA was detected by fluorescence in situ hybridization; protocols of each detection method were as follows:
1) The sRNA was reverse transcribed to cDNA: Reverse Transcription Kit (High-Capacity cDNA Reverse Transcription Kits, Applied Biosystems, cat. No. 4368813) was used to reverse transcribe sRNA into cDNA by stem-loop method, and the reverse transcription system was as follows: RNA template (150 ng/μl) 10 μl, 10×RT buffer, 2.0 μl, 25× dNTP Mix (100 mM) 0.8 μl, U6 RT stem-loop primer 2.0 μl, HJT-sRNA-RT-m7 stem-loop primer 2.0 μl, MultiScribe™ reverse transcriptase 1.0 μl, RNase inhibitor 1.0 μl, nuclease-free H2O 1.2 μl, loaded into a PCR reactor after brief centrifugation, the reaction conditions were as follows: (1) 25° C., 10 min; (2) 37° C., 120 min; (3) 85° C., 5 min; (4) 4° C., termination of the reaction. 20 μl RNase-free ddH2O was added to make up the final volume to 40 μl after the reaction. The stem-loop primer used in the reverse transcription process was synthesized by Beijing Tsingke Biotechnology Co., Ltd.
2) Quantitative PCR amplification reaction: the qPCR reaction system has a total volume of 10 μl, containing: 5 μL 2×SYBR Green Master Mix, 0.5 μl forward primer ([…]), 0.5 μl reverse primer (10 μM), 1 μl cDNA by reverse transcription, 3 RNase-free dH2O. LightCycler 480 fluorescence quantitative PCR instrument was used, and the PCR reaction conditions were: 95° C. for 5 min for pre-denaturation, followed by PCR amplification cycle: (1) 95° C., 10 s; (2) 55° C., 10 s; (3) 72° C. , 20 s; a total of 40 cycles; 40° C. for 10 s in the end to cool down. Both the forward and reverse primers of the amplification reaction were designed and synthesized by Beijing Tsingke Biotechnology Co., Ltd.
3) The relative expression level was calculated by 2-ΔCt method.
100 μl lipid in diethyl ether solution was prepared, and grouped according to the lipid numbers shown in Table 1 (the lipid concentrations are shown in the table below). To the lipid solution was added 20 μl nucleic acid solution (HJT sRNA or siRNA) at the volume ratio of 5:1, and sonicated for after 3 min. The diethyl ether was removed by evaporation at 55° C., and then 100 μl DEPC water was added for hydration to give nucleic acid lipid mixture.
100 μL of the nucleic acid solution (HJT sRNA or siRNA) was added to 2-5 μL of the lipid in chloroform (the concentration was shown in Table 1), mixed, and heated at 80-100° C. for 15-30 min to give nucleic acid lipid mixture.
3.1.1 MRC-5 cell (pulmonary embryonic fibroblast), A549 cell (human lung adenocarcinoma cell), Caco-2 cell (human colon adenocarcinoma cell) (purchased from the Cell Resource Center of the Institute of Basic Medical Sciences, Chinese Academy of Medical Sciences) were cultured to logarithmic growth phase, then plated into 12-well plates at a cell density of 6×10^5/1 mL medium/well; MRC-5 and Caco-2 cells were cultured in Eagle's MEM medium (MEM, Gibco); A549 cells were cultured in Ham's F-12 medium (HyClone); followed by incubation overnight at 37° C., and the follow-up experiments were performed after the cells were attached to the walls. […]

A549 cells = test: Digital PCR (ddPCR) detection of the efficiency of nucleic acid delivery by lipid; type: cell-based, human; conditions: boiling or reverse evaporation method; samples after 6 hours (No. 39: reverse evaporation, 6 and 12 hours)
Text: 2.1 Experimental materials: A549 cells were purchased from the Cell Center of the Institute of Basic Medical Sciences, Chinese Academy of Medical Sciences, TRIzol lysis buffer was purchased from Sigma, High capacity cRNA Reverse Transcription Kit was purchased from ABI, USA, and the digital PCR related reagents were purchased from Bio-Rad USA.
2.2 Experimental method: the total cellular RNA was collected and extracted by TRIzol lysis buffer according to the above methods, and reverse transcribed to cDNA using High capacity cRNA Reverse Transcription Kit, and the cDNA from different groups was subject to digital PCR reaction. Refering to the QX200 Droplet Reader and QuantaSoft Software manual for the protocols, the results were analyzed using QuantaSoft software.
2.2 Experimental method: total RNA was collected and extracted by TRIzol lysis buffer according to the above method, and reverse transcribed to cDNA using High capacity cRNA Reverse Transcription Kit, and the cDNA from different groups was subjected to digital PCR reaction. Refer to the QX200 Droplet Reader and QuantaSoft Software manual for the protocols; the results were analyzed using QuantaSoft software.
2.2 Experimental method: Total RNA was collected and extracted by TRIzol lysis buffer according to the above method, and reverse transcribed to cDNA using TaqMan™ MicroRNA Reverse Transcription KitHigh, and the cDNA from different groups was subjected to digital PCR reaction. Refer to the QX200 Droplet Reader and QuantaSoft Software manual for the protocols; the results were analyzed using QuantaSoft software.
2.2 Experimental method: Total RNA was collected and extracted by TRIzol lysis buffer according to the above method, and reversed to cDNA using High capacity cRNA Reverse Transcription Kit, and the cDNA from different groups was subjected to digital PCR reaction. Refer to the QX200 Droplet Reader and QuantaSoft Software manual for the protocols; the results were analyzed using QuantaSoft software.

Row | SMILES | abundance of sRNA of different sequences in the cells (Taqman probe) ([1]; reverse evaporation method) | delivery of HJT-sRNA-m7 double-stranded RNA into A549 cells (real-time PCR) [1] | delivery of HJT-sRNA-m7 single-stranded RNA into A549 cells (real-time PCR) ([1]; boiling method) | delivery of HJT-sRNA-m7 dsRNA into A549 cells (ddPCR) (A549 cells) | delivery effect relative to that of RNAiMAX (real-time PCR) ([1]; reverse evaporation method) | delivery effect relative to that of RNAiMAX (real-time PCR) ([1]; boiling method)
1 | CCCCC/C=C\C/C=C\CCCCCCCC(=O)O[C@H](COC(=O)CCCCCCCCCCCCCCCCC)COP(=O)([O-])OCC[N+](C)(C)C [No. 11, trimethyl(2-{[(2R)-2-[(9Z, 12Z)-octadeca-9,12-dienoyloxy]-3-(octadecanoyloxy)propyl-phosphonato]oxy}ethyl) azanium] | could effectively facilitate nucleic acid molecules of different sequences entry into various cells |  |  |  |  | 
2 | CCCCC/C=C\C/C=C\CCCCCCCC(=O)O[C@H](COC(=O)CCCCCCCCCCCCCCC)COP(=O)([O-])OCC[N+](C)(C)C [No. 12, (2-{[(2R)-3-(hexadecanoyloxy)-2-[(9Z,12Z)-octadeca-9,12-dienoyloxy]propylphosphonato]oxy}ethyl) trimethylazanium] | could effectively facilitate nucleic acid molecules of different sequences entry into various cells |  |  |  |  | 
3 | CCCCCC/C=C\CCCCCCCC(=O)O[C@H](COC(=O)CCCCCCCCCCCCCCC)COP(=O)(O)OCCN [No. 38, (2-aminoethoxy) [(2R)-2-[(9Z)-hexadec-9-enoyloxy]-3-(hexadecanoyloxy)propoxy] phosphinic acid] |  | delivered double-stranded RNA into A549 and MRC-5 cells | the efficiency of delivery was much higher than that of RNAiMAX | could effectively deliver HJT-sRNA-m7 dsRNA into A549 cells |  | 
4 | CCCCCCCC/C=C\CCCCCCCCCCCC(=O)O[C@H](COC(=O)CCCCCCCCCCCCCCC)COP(=O)(O)OCCN [No. 40, (2-aminoethoxy) [(2R)-2-[(13Z)-docos-13-enoyloxy]-3-(hexadecanoyloxy)propoxy] phosphinic acid] |  | delivered double-stranded RNA into A549 cells |  | could effectively deliver HJT-sRNA-m7 dsRNA into A549 cells | ½ | 
5 | CCCCCCCCCCCCCCCCCCC[C@@H](O)[C@@H](N)CO [No. 41, Sphinganine (d22:0)] |  | delivered HJT-sRNA-m7 double-stranded RNA into A549 cells | delivered HJT-sRNA-m7 single-stranded RNA into A549 and MRC-5 cells | could effectively deliver HJT-sRNA-m7 dsRNA into A549 cells; also recorded: the boiling method had better effects than reverse evaporation method | significantly higher than that of RNAiMAX | about twice
6 | CCCCCCCC/C=C\CCCCCCCCCCCCCC(=O)O[C@H](COC(=O)CCCCCCCCCCCCCC)COP(=O)(O)OCCN [No. 64, 1-pentadecanoyl-2-nervonoyl-sn-glycero-3-phospho-ethanolamine] |  | delivered HJT-sRNA-m7 double-stranded RNA into A549 cells |  |  |  | about 3 times that of RNAiMAX
